Laboratory results: patent publication US20070142437A1, “CHEMICAL COMPOUNDS” (priority 2005, published 2007)
pIC50: −log10 of the molar value.

Legend:
Assay type in all cases: biochemical
[1] = biological target: T1, CDK4 (Homo sapiens, UniProt P11802); test: CDK4 substrate phosphorylation assay (Rb protein, 33P-ATP); conditions: Inhibition of CDK4
T1 construct: made in house
Protocol: (§1) The compounds of the present invention have valuable pharmacologic properties. Different compounds from this class are particularly effective at inhibiting CDK2 and/or CDK4 enzymes at concentrations, which range from 0.0001 to 1 μM and additionally show specificity relative to other kinases. Substrate phosphorylation assays were carried out as follows:
Cyclin D1 and cyclin-dependent kinase 4 were expressed utilizing a baculovirus expression system. The catalytic activity of CDK4 protein was assayed by measuring the phosphorylation of Rb protein. A truncated Rb protein (residues 773-928 of the native retinoblastoma protein, fused to glutathione S-transferase to facilitate purification) was used as the phosphoryl acceptor. The assay conditions were 100 mM HEPES (N-[2-hydroxyethyl]piperzine-N′-[2-ethanesulfonic acid]), pH 7.5, 0.5 μM GST-Rb protein, 1 μCi/mL [^33P]-ATP (1 nM-20 μM), 5-20 mM MgCl2, 2.5 mM EDTA, 1 mM dithiotheitol, 0.2 mg/mL bovine serum albumin, 2% (v/v) dimethyl sulfoxide (DMSO), CDK4 enzyme (5-50 nM) in a final volume of 50 μL. Reactions were incubated for time periods of 10-60 min at 30° C. and terminated by the addition of 50 μL quench (1 mM ATP/100 mM EDTA, pH 7.0). Detection of protein phosphorylation was accomplished by scintillation counting following collection of protein in 96 well plates coated with Glutathione or trapping of protein onto phosphocellulose filters. Counts detected by these methodologies minus the appropriate background were assumed to be proportional to the reaction initial rates. IC50 values were determined by measuring enzyme activity in the presence of different inhibitor concentrations (0.1 nM to 50 μM). IC50s were determined by a least squares fit to the equation CPM=Vmax*(1−([I]/(K+[I])))+nsb, or pIC50s were determined by a fit to the equation CPM=nsb+(Vmax−nsb)/(1+(x/10^x−pIC50)), where nsb are the background counts.

[2] = biological target: T2, CDK2 (Homo sapiens, UniProt P24941); test: CDK2 substrate phosphorylation assay (biotinylated peptide, 32P-ATP); conditions: Inhibition of CDK2
T2 construct: made in house
Protocol: as §1
Cyclin dependent protein kinase 2 assays utilized the peptide Biotin-aminohexyl-ARRPMSPKKKA-NH2 as phosphoryl group acceptor. CDK2 was expressed utilizing a baculovirus expression system and was partially purified to comprise 20-80% of total protein, with no detectable competing reactions present. Typically, assays were performed by incubating enzyme (0.2-10 nM), with and without inhibitor, peptide substrate (1-10 nM), [g-^32P]ATP (1-20 nM), and 10-20 mM Mg^2+ for periods of time generally within the range 10-120 minutes. Reactions were terminated with 0.2-2 volumes of either 20% acetic acid or 50-100 mM EDTA buffered to pH 7 (substrate consumption <20%). The buffer employed in enzyme assay was 100 mM HEPES pH 7.5 containing 0.1 mg/mL BSA and 5% DMSO. Inhibitors were diluted in 100% DMSO prior to addition into the assay. Detection of peptide phosphorylation was accomplished by scintillation counting following either collection of peptide onto phosphocellulose filters (for reactions stopped with acetic acid), collection of peptide in wells of 96 well plates coated with Streptavidin (Pierce) (reactions were stopped with EDTA), or addition of Avidin coated Scintillant impregnated beads (Scintillation Proximity Assays from Amersham, reactions were stopped with EDTA). Counts detected by any of these methodologies minus the appropriate background (assays with additional 40 mM EDTA or lacking peptide substrate) were assumed to be proportional to the reaction initial rates, and IC50s were determined by a least squares fit to the equation CPM=Vmax*(1−([I]/(K+[I])))+nsb, or −pIC50s were determined by a fit to the equation CPM=nsb+(Vmax−nsb)/(1+(x/10^x−pIC50)), where nsb are the background counts. Filters are washed four times with 75 mM phosphoric acid. Radioactivity was determined by liquid scintillation counting.

[3] = biological target: hVEGFR2 (Homo sapiens, UniProt P35968); test: VEGFR2 HTRF assay; conditions: Inhibition of VEGFR2
Sequence of hVEGFR2 (P35968 20-1356): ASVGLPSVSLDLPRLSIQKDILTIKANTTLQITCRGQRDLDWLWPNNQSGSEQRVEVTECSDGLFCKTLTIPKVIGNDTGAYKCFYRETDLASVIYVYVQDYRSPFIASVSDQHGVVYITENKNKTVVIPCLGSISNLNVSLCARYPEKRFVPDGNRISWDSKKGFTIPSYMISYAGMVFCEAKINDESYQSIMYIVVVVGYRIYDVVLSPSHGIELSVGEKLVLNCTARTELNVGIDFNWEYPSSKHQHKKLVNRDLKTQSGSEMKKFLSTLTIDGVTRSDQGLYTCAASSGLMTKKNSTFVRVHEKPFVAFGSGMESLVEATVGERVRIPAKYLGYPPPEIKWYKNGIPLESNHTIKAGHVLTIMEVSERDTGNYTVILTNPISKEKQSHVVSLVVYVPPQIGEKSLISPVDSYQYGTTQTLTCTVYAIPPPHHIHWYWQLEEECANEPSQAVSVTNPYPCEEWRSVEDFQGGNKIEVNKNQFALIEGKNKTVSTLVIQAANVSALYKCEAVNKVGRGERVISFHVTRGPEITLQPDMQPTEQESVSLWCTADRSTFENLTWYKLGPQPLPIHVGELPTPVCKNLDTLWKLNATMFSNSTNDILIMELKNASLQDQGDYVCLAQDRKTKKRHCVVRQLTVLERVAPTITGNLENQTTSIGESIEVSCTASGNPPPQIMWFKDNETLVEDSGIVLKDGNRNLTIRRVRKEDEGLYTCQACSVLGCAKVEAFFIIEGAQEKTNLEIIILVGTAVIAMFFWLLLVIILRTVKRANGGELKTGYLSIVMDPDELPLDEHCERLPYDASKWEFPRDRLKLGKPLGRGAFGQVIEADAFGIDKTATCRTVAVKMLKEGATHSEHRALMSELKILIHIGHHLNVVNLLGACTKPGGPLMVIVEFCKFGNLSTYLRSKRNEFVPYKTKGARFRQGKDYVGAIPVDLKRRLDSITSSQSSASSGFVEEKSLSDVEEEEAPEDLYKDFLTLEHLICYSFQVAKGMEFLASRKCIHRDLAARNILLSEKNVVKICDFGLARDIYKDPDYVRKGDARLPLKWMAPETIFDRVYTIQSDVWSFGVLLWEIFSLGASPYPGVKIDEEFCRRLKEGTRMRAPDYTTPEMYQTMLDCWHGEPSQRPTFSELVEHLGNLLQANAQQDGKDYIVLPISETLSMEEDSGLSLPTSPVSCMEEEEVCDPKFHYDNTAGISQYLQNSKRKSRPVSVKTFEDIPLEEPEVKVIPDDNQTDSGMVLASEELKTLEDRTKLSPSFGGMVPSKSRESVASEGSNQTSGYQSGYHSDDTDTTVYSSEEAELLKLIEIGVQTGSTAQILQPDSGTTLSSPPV
Protocol: The compounds of the present invention elicit important and measurable pharmacological responses. Different compounds from this class are particularly effective at inhibiting VEGFR2 enzymes, as described by the VEGFR2 HTRF assay below, at concentrations, which range from 0.0001 to 1 μM.
The assays were performed in 96-well black plates. 10 nM hVEGFR2 was used to phosphorylate 0.36 μM peptide (Biotin-Ahx-EEEEYFELVAKKKK) in the presence of 75 μM ATP, 5 mM MgCl2, 0.3 mM DTT, 0.1 mg/ml BSA, and 0.1 M HEPES (pH 7.5). 10 μl 0.5 M EDTA was added to reactions as negative controls. The 50 μl kinase reaction with or without inhibitors in 5% DMSO was carried out at room temperature for 45 minutes, then stopped by 40 μl of 125 mM EDTA. 2.4 μg/ml Streptavidin-APC and 0.15 μg/ml Eu-α-pY, in the presence of 0.1 mg/ml BSA, 0.1 M HEPES (pH7.5), were added to a final volume of 140 μl. The plate was incubated for 10 min at room temperature (22° C.) and read on the Victor with the time resolved fluorescence mode by exciting at 340 nm and reading the emission at 665 nm.
• Peptide from Synpep (Dublin, Calif.) • ATP, MgCl2, DTT, BSA, HEPES, EDTA, DMSO from Sigma Streptavidin-APC from Molecular Probes (Eugene, Oreg.) • Eu-α-pY from EG&G Wallac (Gaithersburg, Md.)

T1 sequence (P11802 whole entry, species assumed): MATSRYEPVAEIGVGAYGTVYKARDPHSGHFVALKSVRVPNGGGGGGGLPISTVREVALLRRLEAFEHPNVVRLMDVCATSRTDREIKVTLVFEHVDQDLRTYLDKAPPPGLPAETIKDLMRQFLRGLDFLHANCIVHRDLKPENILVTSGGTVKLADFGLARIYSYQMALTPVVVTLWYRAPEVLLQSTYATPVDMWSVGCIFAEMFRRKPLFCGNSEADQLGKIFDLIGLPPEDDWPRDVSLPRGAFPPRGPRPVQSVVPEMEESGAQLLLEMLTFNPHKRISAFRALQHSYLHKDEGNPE
T1 sequence (P24385 whole entry partner, species assumed): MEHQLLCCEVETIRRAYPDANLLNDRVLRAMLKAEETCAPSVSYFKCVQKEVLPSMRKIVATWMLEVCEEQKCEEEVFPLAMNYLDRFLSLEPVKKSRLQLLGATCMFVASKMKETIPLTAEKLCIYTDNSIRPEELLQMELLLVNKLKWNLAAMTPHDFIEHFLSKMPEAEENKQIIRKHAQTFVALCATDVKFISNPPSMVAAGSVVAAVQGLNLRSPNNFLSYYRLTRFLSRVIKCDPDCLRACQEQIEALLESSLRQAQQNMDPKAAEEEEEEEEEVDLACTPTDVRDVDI

SMILES | pIC50 [1] | pIC50 [2] | pIC50 [3]
CC(C)COc1cccc(-c2cnc(Nc3ccc(N4CCN(C)CC4)cc3)o2)c1 [Example 14, 5-(3-Isobutoxyphenyl)-N-[4-(4-methylpiperazin-1-yl)phenyl]-1,3-oxazol-2-amine] | > 7.00 | > 6.00 | > 6.00
COc1cccc(-c2cnc(Nc3ccc(CN4CCCC4)cc3)o2)c1 [Example 44, 5-(3-methoxyphenyl)-N-[4-(pyrrolidin-1-ylmethyl)phenyl]-1,3-oxazol-2-amine] | > 7.00 | > 6.00 | > 7.00
